# Test results published in patent US4645840A, “Intermediates for preparing 1,2-dihydropyrido[3,4-b]-pyrazines” (Southern Research Institute, priority 1986, dated 1987).
# Read-outs that look alike come from different tables or passages of the source.
# How the values were obtained:
# [1] = system: lymphoid leukemia L1210 cells; assay: Inhibition of proliferation of cultured lymphoid leukemia L1210 cells; type: cell-based; settings: Mus musculus
# Experimental: The 1,2-dihydropyrido[3,4-b]pyrazines of this invention are powerful inhibitors of the proliferation of cultured lymphoid luekemia L1210 cells as shown in Table IV.
# (a) Concentration of agent that inhibits proliferation of cultured
# lymphoid leukemia L1210 cells to 50% control growth during 48 hours. G. P
# Wheeler, B. J. Bowdon, J. A. Werline, D. J. Adamson and C. Temple, Jr.,
# [2] = system: lymphoid leukemia L1210 cells; assay: Mitotic index of cultured lymphoid leukemia L1210 cells; type: cell-based
# [3] = system: lymphocytic leukemia P388 cells; assay: Activity against lymphocytic leukemia P388 (10^6 tumor cell implant, i.p.) in mice; type: in vivo; settings: P388, 10^6 cells i.p.
# Description: (c) Lymphocytic leukemia P388. R. I. Geran, N. H. Greenbert, M. M.
# MacDonald, A. M. Schumacker, and B. J. Abbott, Cancer Chemother. Rep., 3
# [4] = system: Methotrexate-resistant line of P388 (tumor P7); assay: Activity against methotrexate-resistant line of P388 in mice; type: in vivo; settings: methotrexate-resistant P388, schedule day 1, 100 mg/kg
# Experimental: (e) Methotrexateresistant line of P388 (designated tumor P7 by the Drug
# Evaluation Branch, National Cancer Institute). In mice with 10^6 cell
# implant (IP), methotrexate at a dose of 2 mg/kg on the qd 1-9 schedule
# gave a 2log cell kill against the sensitive line of P388 and a 2log
# increase in cells against the methotrexateresistant line of P388.
# [5] = system: Vincristine-resistant line of P388; assay: Activity against vincristine-resistant line of P388 in mice; type: in vivo; settings: for activity against P388 cells resistant to vincristine: in mice
# Description: (g) Vincristineresistant line of P388. L. J. Wilkoff and E. A. Dulmadge, […]
# KB cell = settings: cited from earlier work
# several neoplasms = settings: cited from earlier work
# [6] = system: lymphocytic leukemia P388 cells; settings: sensitive line of P388, 10^6 cell implant IP, 2 mg/kg, qd 1-9; cited from earlier work
# [7] = system: Methotrexate-resistant line of P388 (tumor P7); settings: methotrexate-resistant line of P388, 10^6 cell implant IP, 2 mg/kg, qd 1-9; cited from earlier work
# [8] = L1210, inhibits proliferation to 50% control growth during 48 hours (footnote a), read-out: ID50 (the source's name)
smiles,measurement,setting,value
CCOC(=O)Nc1cc2c(c(N)n1)N=C(CN(C)c1ccc(Cl)cc1)CN2 [R = 4-ClC6 H4 N(CH3)CH2 (R4 = H)],IC50,[1]; [8],14.5 nM
same,Mitotic Index 12 h,[2]; 0.03 μM,0.71
same,% ILS,"[3]; schedule day 1, 100 mg/kg",65%
"CCOC(=O)Nc1cc2c(c(N)n1)N=C(CCc1ccccc1)CN2 [R = C6 H5 CH2 CH2 (R4 = H), Ethyl 5-Amino-1,2-dihydro-3-(2-phenylethyl)pyrido(3,4-b)pyrazine-7-carbamate]",IC50,[1]; [8],13 nM
same,Mitotic Index 24 h,[2]; 0.3 μM,0.33
same,% ILS,"[3]; schedule day 1, 100 mg/kg",29%
"CCOC(=O)Nc1cc2c(c(N)n1)N=C(CN(C)c1ccccc1)CN2 [R = C6 H5 N(CH3)CH2 (R4 = H), Ethyl 5-Amino-1,2-dihydro-3-[(N-methyl-N-phenyl)aminomethyl]pyrido[3,4-b]pyrazine-7-carbamate]",IC50,[1]; [8],8.4 nM
same,Mitotic Index 12 h,[2]; 0.03 μM,0.77
same,Mitotic Index 24 h,[2]; 0.3 μM,0.80
same,% ILS,"[3]; schedule day 1, 100 mg/kg",114%
same,% ILS,[4],66%
same,activity against P388 cells resistant to vincristine,[5],active in mice against P388 cells that were resistant to vincristine
same,% ILS,"[5]; vincristine-resistant P388, schedule day 1, 67 mg/kg",90%
CCOC(=O)Nc1cc2c(c(N)n1)N=C(CN(C)c1ccc(C(=O)OC)cc1)CN2 [drawing 5],cytotoxicity in the KB cell culture screen,KB cell,showed cytotoxicity in the KB cell culture screen
CCOC(=O)Nc1cc2c(c(N)n1)N=C(CN(C)c1ccccc1)CN2 [NSC-181928],activity against several neoplasms,several neoplasms,active against several neoplasms
"CC[C@]1(O)C[C@H]2CN(CCc3c([nH]c4ccccc34)[C@@](C(=O)OC)(c3cc4c(cc3OC)N(C=O)[C@H]3[C@@](O)(C(=O)OC)[C@H](OC(C)=O)[C@]5(CC)C=CCN6CC[C@]43[C@@H]65)C2)C1 [Vincristine, reference compound]",IC50,"[1]; L1210, 48 h, read-out: ID50",1 nM
"CCOC(=O)Nc1cc2c(c(N)n1)N=C(CN(C)c1ccc(C(=O)OC)cc1)CN2 [R = 4-CH3 O2 CC6 H4 N(CH3)CH2 (R4 = H), reference compound]",IC50,[1]; [8],58 nM
same,Mitotic Index 12 h,[2]; 0.1 μM,0.44
same,Mitotic Index 12 h,[2]; 0.3 μM,0.61
same,% ILS,"[3]; schedule days 1-9, 25 mg/kg",30%
CN(Cc1cnc2nc(N)nc(N)c2n1)c1ccc(C(=O)N[C@@H](CCC(=O)O)C(=O)O)cc1 [methotrexate],log cell kill,[6],2 log
same,log increase in cells,[7],2 log
CCOC(=O)Nc1cc2c(c(N)n1)N=C(CN(C)c1ccc(OC)cc1)CN2 [R = 4-CH3 OC6 H4 N(CH3)CH2 (R4 = H)],IC50,[1]; [8],7.9 nM
same,Mitotic Index 12 h,[2]; 0.03 μM,0.64
same,Mitotic Index 12 h,[2]; 0.3 μM,0.49
same,% ILS,"[3]; schedule day 1, 25 mg/kg",133%
same,% ILS,"[3]; schedule day 1, 50 mg/kg",80%
same,activity against P388 cells resistant to vincristine,[5],active in mice against P388 cells that were resistant to vincristine
same,% ILS,"[5]; vincristine-resistant P388, schedule day 1, 25 mg/kg",150%
"CCOC(=O)Nc1cc2c(c(N)n1)N=C(CN(C)c1ccc(OC)cc1)C(C)N2 (centres unmarked) [R = 4-CH3 OC6 H4 N(CH3)CH2 (R4 = CH3), Ethyl 5-Amino-1,2-dihydro-3-[[N-(4-methoxyphenyl)-N-methylamino]methyl]-2-methylpyrido[3,4-b]pyrazine-7-carbamate]",IC50,[1]; [8],5.5 nM
same,Mitotic Index 12 h,[2]; 0.3 μM,0.66
same,% ILS,"[3]; schedule days 1-5, 48 mg/kg",53%
